Reference: patent US12016340B2, “Synergistic antimicrobial formulation consisting of plant extract and lauric arginate” (KALAMAZOO HOLDINGS, INC., priority 2019, dated 2024)

Columns and labels:
[1] = prior art; cited from earlier work
Z. bailii = experiment: Antimicrobial efficacy of emulsions, growth measured by optical density at 600 nm; type: cell-based, Zygosaccharomyces bailii; conditions: time course; 45.5 ppm thyme oil and 13 ppm LAE emulsion, or 13 ppm lauric arginate alone; FIG. 4
Description: Antimicrobial efficacy of emulsions of the invention is assessed by back diluting a mid-log phase, overnight culture of Z. bailii 1:100 into fresh acidified (pH 5) yeast peptone dextrose broth and adding the appropriate concentration of emulsion. Emulsions are prepared and tested in duplicate. Controls of lauric arginate are prepared in the same buffer with corn oil substituted for essential oil, at the same concentration. To test thyme oil alone, ethanol is used as a vehicle to solubilize the thyme oil in the microbiological media.
The antimicrobial efficacy of the formulations was evaluated against the relevant spoilage organism Z. bailii after 72 hours of incubation, as measured by optical density at 600 nm. See FIG. 3 which compares the growth of Z. bailii under differing conditions. Z. bailii was treated to emulsions comprising 52.5 ppm Thyme oil and 15 ppm lauric arginate (LAE); 52.5 ppm Thyme essential oil alone; or 15 ppm lauric arginate alone. […]
Additional studies were conducted in order to ascertain the temporal component of lauric arginate activity. […] Cells are treated to 45.5 ppm Thyme oil and 13 ppm lauric arginate (LAE) emulsion; 45.5 ppm Thyme essential oil alone; or 13 ppm lauric arginate alone, and the OD600 of the cultures were measured over time. […]

SMILES: Cc1ccc(C(C)C)c(O)c1 [thymol]
- synergy with lauric arginate [1]: not to possess synergy

SMILES: CCCCCCCCCCCC(=O)N[C@@H](CCCN=C(N)N)C(=O)OCC [lauric arginate, Lauric arginate]
- growth inhibition over time (OD600) (Z. bailii): not inhibitory

SMILES: Cc1ccc(C(C)C)cc1O [carvacrol]
- level at which synergy with lauric arginate was reported [1]: 60 ppm
